# Data reported in patent publication US6977254B2, “Hydroxy cyclohexenyl phenyl carboxamides tocolytic oxytocin receptor antagonists” (Wyeth, priority 2001, dated 2005).
# Molecular target: T1, human V2 vasopressin receptor subtype (Homo sapiens, UniProt P30518)
# T1 construct: host or cells: CHO cells, stably transfected (pZeoSV vector); membranes
# Test: Vasopressin binding in CHO cell membranes expressing human vasopressin V2 subtype receptors ([3H]arginine vasopressin)
# Settings: 100 nM, value without parentheses
# Description: Vasopressin Binding in Chinese Hamster Ovary Cell Membranes Expressing Human Vasopressin V2 Subtype Receptors
# Chinese Hamster Ovary (CHO) cells stably transfected with the human V2 subtype receptors were obtained from M. Thibonnier, Case Western Reserve University School of Medicine, Cleveland, Ohio.
# A. Passaging and Amplification of Cells:
# CHO cells transfected with the human vasopressin V2 subtype receptors obtained from M. Thibonnier (pZeoSV vector) are allowed to grow to confluency (approx. >90%) in T-150 flasks under sterile conditions, in a cell culture medium of F-12 Nutrient Mixture (HAM) with L-glutamine (Gibco Cat. #11765-054) containing 15 mM HEPES (Gibco Cat. #15630-080), 1% antibiotic/antimycotic (add 5 mL 100×, Gibco Cat. #15240-062 per 500 mL F-12), 250 μg/mL Zeocin (add 1.25 mL of 100 mg/mL Invitrogen R-250-01 per 500 mL F-12) and 10% Fetal Bovine Serum (Qualified, heat inactivated, Gibco Cat. #16140-063). The medium is removed by aspiration and the cells washed with 10 mL of Hank's Balanced Salt solution (Gibco Cat. #14175-095). The salt solution is removed by aspiration and the cells trypsinized with 5 mL of trypsin-EDTA (0.05% trypsin, 0.53 mM EDTA-4Na, Gibco Cat. #25300-070) for 1 min. The trypsin is removed by aspiration and the cells dislodged by tapping. Cell Culture medium (e.g. 30 mL for 1:30 split) is immediately added and mixed well to inactivate trypsin. 1 mL of detached cells is added to new culture flasks containing fresh Cell Culture medium (e.g. into 25 mL per T-150 flask), and mixed gently. The cells are incubated at 37° C. in 5% CO2. The medium is changed at 3 to 4 day interval (or as appropriate). The cells grow to confluency (approx. >75%-95%) within 7-8 days. All steps are done under sterile conditions.
# The cells are washed twice gently with Hank's Balanced Salt solution (e.g. use 10 mL per T-150 flask). The excess solution is removed and the cells bathed for 15-30 min. in an enzyme-free Cell Dissociation Buffer (e.g. use 8 mL Hank's Based, Gibco Cat. #13150-016 per T-150 flask) until cells are loosened. The contents are transferred to centrifuge tubes (50 mL size) kept in ice bath. All subsequent steps are done at 4° C. The tubes are centrifuged at 300×g for 15 min (1380 rpm on SORVAL, Model RT6000D, using rotor for 50 mL tubes). The supernatant is discarded and the cells suspended in homogeneizing buffer(10 mM Tris-HCl containing 0.25 M sucrose and 1 mM EDTA, pH 7.4) ensuring that the volume of the buffer is about ten times the volume of the cell pellet. The cells are pooled into a centrifuge tube (50 mL) and homogenized with Polytron at setting 6 for 10 sec. The homogenate is transferred into a Potter-Elvjehm homogeneizer and homogenized with 3 strokes. The homogenate is centrifuged at 1500×g for 60 min at 4° C. (3100 rpm using SORVAL, model RT6000D, using rotor for 50 mL tubes). The pellet is discarded. The supernatant is centrifuged at 100,000×g for 60 min. at 4° C. (Beckman L8-80M ultracentrifuge; spin at 37,500 rpm with rotor type 70 Ti for 50 mL tubes; 38,000 rpm with type 80Ti for 15 mL tubes; or 35,800 rpm with rotor type 45Ti). The supernantant is discarded and the pellet suspended in 3 to 4 mL of Tris buffer (50 mM TRIS-HCl, pH 7.4). The protein content is estimated by the Bradford or Lowry method. The volume of the membrane suspension is adjusted with the membrane buffer (50 mM Tris-HCl containing 0.1% BSA and 0.1 mM PMSF) to give 3.0 mg/mL (or as appropriate) of protein. The membranes are aliquoted and stored at −70° C.
# C. Radioligand Binding Assay:
# In wells of a 96-well format microtiter plate, is added 90, 110 or 130 μL (to make up a final volume of 200 μL) of assay buffer containing 50 mM of Tris-HCl (pH 7.4), […], 1 mg % aprotinin, 1 mg % leupeptin, 2 mg % 1,10-phenanthroline, 10 mg % trypsin inhibitor, and 0.1 mM PMSF. The inhibitors are added on the day of the experiment. […]
# T1 sequence (P30518 whole entry): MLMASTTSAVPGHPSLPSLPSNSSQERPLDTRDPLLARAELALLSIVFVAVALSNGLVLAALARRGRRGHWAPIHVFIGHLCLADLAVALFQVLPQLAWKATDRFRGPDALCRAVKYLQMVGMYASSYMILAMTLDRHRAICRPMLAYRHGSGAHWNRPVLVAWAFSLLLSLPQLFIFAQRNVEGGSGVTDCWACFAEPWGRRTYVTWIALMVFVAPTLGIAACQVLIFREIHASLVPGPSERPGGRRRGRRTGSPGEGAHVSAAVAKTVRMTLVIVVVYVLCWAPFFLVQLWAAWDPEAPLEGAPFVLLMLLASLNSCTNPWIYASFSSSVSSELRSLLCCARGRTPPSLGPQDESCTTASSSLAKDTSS
row,V2 % inhibition @ 100 nM [%],Compound
1,46,"Cc1cc(C(=O)N2Cc3ccc(C(=O)N(CCO)CCO)n3Cc3ccccc32)ccc1C1=CCCc2ccccc21 [Example 16, {10-[4-(3,4-Dihydro-naphthalen-1-yl)-3-methyl-benzoyl]-10,11-dihydro-5H-pyrrolo[2,1-c][1,4]benzodiazepin-3-yl}-3-carboxylic acid bis-(2-hydroxy-ethyl)-amide]"
2,7,"Cc1cc(C(=O)N2Cc3ccc(C(=O)N4CCN(CCO)CC4)n3Cc3ccccc32)ccc1C1=CCCCC1 [Example 17, {10-[4-(1-Cyclohex-1-en-1-yl)-3-methylbenzoyl]-10,11-dihydro-5H-pyrrolo[2,1-c][1,4]benzodiazepin-3-yl}[4-(2-hydroxyethyl)-1-piperazinyl]methanone]"
